In patent publication US6569877B2, “Therapeutic and prophylactic agents for neoplasms” (Sankyo Company, Limited, priority 1999, dated 2003):

Key:
[1] = system: Human large intestine cancer cells COL-2-JCK; experiment: Antitumor effects upon human large intestine cancer cells COL-2-JCK (colony formation, crystal violet staining); type: cell-based; settings: 300 cells/well, 10 days incubation, control (0) 3311
Protocol: Human cancer cells from the large intestine, COL-2-JCK (moderately differentiated adenocarcinoma), purchased from the Central Institute for Experimental Animals, were employed in the Test Example of the present invention as the solid tumor strain. The proliferated CLO-2-JCK cells were cultured and used for the experiments in our laboratory. In order to subculture the strain of the cancer cells and to test compounds in the experiments, the cancer cells were cultured with D-MEM/F-12 culture medium containing bovine fetal serum (manufactured by GIBCO Co.).
The test was carried out as follows: COL-2-JCK cells growed confluently on a petri dish for culture of cells (inner diameter 100 mm) were removed from the petri dish by using EDTA and 0.05% trypsin solution, and diluted to 100 cells/ml cell density with the culture medium. 3 ml of the diluted cell solution was then placed into each well of a 6-well plate (300 cells/well). At the same time, the test compound dissolved in DMSO solution was added so as to be 1, 10, 100 nM, 1 and 10 μM of the final concentrations to each well. The final concentration of the DMSO solution was adjusted to 0.1%. DMSO solution (0.1%) alone was placed in wells of the control group. After addition of the test compound, the cells were incubated in the presence of 5% CO2 gas for 10 days at 37° C. After incubation was terminated, each well containing the cells was washed once with Dulbecco phosphate buffer saline (bivalent ion minus). Then 1 ml of 10% neutral formalin solution containing 0.02% crystal violet was added to the well and left for 5 minutes in order to stain the cells. After the dye was fixed, the cells were washed with water and air-dried. The total colony area (mm^2) of dye-fixed tumor cells was calculated by using an image analyzer of PCA-11 (manufactured by SystemSience Co.).

[2] = system: Human H69 lung cancer cells; experiment: Antitumor effect on human H69 lung cancer cells (subcutaneous xenograft in nude mice); type: in vivo; settings: H69 in BALB/c nude mice; 10 mg/kg orally once a day, 24 times; tumor volume on the 39th day after inoculation
Text: (§1) A piece (5 mm×5 mm) of human lung affected by H69 strain of lung cancer was subcutaneously inoculated in a group of 10 BALB/c nude mice (female, 6 weeks old). The test compounds were suspended in 5% emulsified saline containing 2.5% dimethylacetamide. They were orally administered once a day for 24 times in total, i.e., from the first day after the inoculation to the 4th day, from the 7th to the 11th day, from the 14th to the 18th day and from the 21st to the 25th day and from the 28th to the 32nd day after inoculation.
The short diameter (mm) and the long diameter (mm) of the tumor were measured with an electronic digital caliper square on the 39th day after inoculation. The efficacy of the test compound was evaluated by calculation of the inhibitory growth rate of the tumor (GI %) according to the following equation: […]
A: average tumor volume on the 39th day after inoculation in the group treated with the test compound (*)
B: an average tumor volume on the 39th day after inoculation in the non-treated group (*)
*: The tumor volume indicates ½×(long diameter of the tumor)×(short diameter of the tumor)^2.

[3] = system: Human MKN-74 stomach cancer cells; experiment: Antitumor effects on human MKN-74 stomach cancer cells (subcutaneous xenograft in nude mice); type: in vivo
Text: as §1, with “human stomach” for “human lung”, “by MKN-74” for “by H69”, “of stomach” for “of lung”, “after” for “after the”, “18th day,” for “18th day and”, “after the” for “after”
The short diameter (mm) and the long diameter (mm) of the tumor were measured with an electronic digital caliper square on the 35th day after inoculation. The efficacy of the test compound was evaluated by calculation of the inhibitory growth rate of the tumor (GI %) in a similar to those described above in Test Example 2.

COc1ccc2nc(COc3ccc(CC4SC(=O)NC4=O)cc3)n(C)c2c1.Cl (centres unmarked) [Example 1, 5-[4-(6-Methoxy-1-methyl-1H-benzimidazol-2-ylmethoxy)benzyl]thiazolidine-2,4-dione hydrochloride]
Total colony area (mm^2) of tumor cells ([1]; final concentration of the test compound 1 nM): 2795 mm^2
Total colony area (mm^2) of tumor cells ([1]; final concentration of the test compound 10 nM): 2018 mm^2
Total colony area (mm^2) of tumor cells ([1]; final concentration of the test compound 100 nM): 1352 mm^2
Total colony area (mm^2) of tumor cells ([1]; final concentration of the test compound 1 μM): 933 mm^2
Total colony area (mm^2) of tumor cells ([1]; final concentration of the test compound 10 μM): 768 mm^2
GI (%) inhibitory growth rate of the tumor [2]: 57%
GI (%) inhibitory growth rate of the tumor ([3]; MKN-74 in BALB/c nude mice, 10 mg/kg orally once a day, 24 times, tumor volume on the 35th day after inoculation): 76%
suppression of proliferation of human stomach cancer cells (in words) ([3]; as shown by Test Example 3): suppressed the proliferation of human stomach cancer cells to a remarkable extent
